Read-outs that look alike come from different tables or passages of the source. Where a SMILES comes first, the peptide text is derived from it. The star is where a group is joined. X1 = O=C(CO/N=C/c1cccnc1F)*
How the values were obtained:
[1] = Preclinical PET biodistribution of [^18F]FPCA‐F9 solution after tail‐vein injection; format: in vivo, C3H mice; details: C3H, mouse, iv, 13 MBq, total radioactivity, i.v. tail vein; for SUV at 1 h: 1 hour postinjection; for SUV at 20 min: 20 minutes postinjection
Experimental: C3H mice were anaesthetised using isoflurane induction 4% and maintained 1.5% in 70% N2O and 30% O2 mixture. [^18F]FPCA‐F9 solution was injected in the tail vein (13 MBq, n = 4) of healthy mice or [^18F]FPCA‐F9 hydrogel was injected subcutaneously into the right flank of different healthy mice (2‐5 MBq, n = 3). The acquisition protocol parameters consisted of a preliminary CT scan to determine attenuation correction factors followed by a 1‐ and 4‐hour PET acquisition time for [^18F]FPCA‐F9 solution and hydrogel, respectively. Major excretory organs, including liver, kidney and bladder as well as bone and hydrogel region (in [^18F]FPCA‐F9 hydrogel scans only), were delineated on CT and uptake was quantified as SUV.

[2] = [^18F]FPCA‐F9 preclinical metabolite analysis (SE‐HPLC of plasma, kidney, liver, urine); format: in vivo, C3H mice
Experimental: […] Plasma was extracted from whole blood samples using a Thermo ALC multispeed refrigerated centrifuge PK121R (8720 g, 4°C for 3 minutes). Kidney and liver samples were homogenised and centrifuged (8720 g, 4°C for 3 minutes), and the supernatant was removed for HPLC analysis. Urine samples were directly injected onto HPLC without sample preparation using a GE Superdex peptide 10/300 GL (GE Healthcare, UK) eluted with PBS (1 mL/min, 220 nm).

## NCCCC[C@H](NC(=O)[C@H](CCCCN)NC(=O)[C@H](Cc1ccccc1)NC(=O)[C@H](CCC(=O)O)NC(=O)[C@H](Cc1ccccc1)NC(=O)[C@H](CCCCN)NC(=O)[C@H](Cc1ccccc1)NC(=O)[C@H](CCC(=O)O)NC(=O)[C@H](Cc1ccccc1)NC(=O)CO/N=C/c1cccnc1F)C(=O)O [[^18F]FPCA‐F9] (X1-FEFKFEFKK-OH)
[1]; bladder, n = 4, read-out: Bladder uptake
  SUV at 1 h: 47.4 ± 7.2 SUV
[1]; bladder, begins to plateau, n = 4, mean ± SD, read-out: Bladder uptake
  SUV at 20 min: 53.4 ± 16.6 SUV
[1]; bone, n = 4, read-out: Bone accumulation
  SUV at 1 h: 7.8 ± 2.5 SUV
[1]; kidney, within 5 minutes postinjection, n = 4, read-out: Kidney uptake
  SUV: 5.9 ± 1.9 SUV
[1]; liver, 5 minutes postinjection, n = 4, read-out: Liver uptake
  SUV at 5 min: 1.4 ± 0.1 SUV
[1]; liver, n = 4, read-out: Liver uptake
  SUV at 20 min: 0.7 ± 0.1 SUV
[2]; SE‐HPLC, parent peak at ~18 minutes
  Metabolites of [^18F]FPCA‐F9 in liver, kidney, urine and plasma samples (in words): none of the samples analysed showed any metabolite
[2]; in vivo, mouse plasma, metabolite analysis by SE‐HPLC
  Plasma stability (in words): high plasma stability
[2]; liver and kidney samples, SE‐HPLC
  Radioactivity in second peak at ~8 minutes (larger species, aggregation or protein interaction): ~ 5%
[2]; mouse kidney homogenate supernatant after i.v. injection of monomer, after 60 minutes, SE‐HPLC radio‐detection, mean ± SD, n = 4
  Parent ([^18F]FPCA‐F9) fraction, kidney: 95% ± 1%
[2]; mouse liver homogenate supernatant after i.v. injection of monomer, after 60 minutes, SE‐HPLC radio‐detection (Superdex peptide 10/300 GL, PBS), mean ± SD, n = 4
  Parent ([^18F]FPCA‐F9) fraction, liver: 94% ± 0%
[2]; mouse plasma after i.v. injection of monomer, after 60 minutes, SE‐HPLC radio‐detection, mean, n = 4
  Parent ([^18F]FPCA‐F9) fraction, plasma: 100%
[2]; mouse urine after i.v. injection of monomer, after 60 minutes, SE‐HPLC radio‐detection, mean ± SD, n = 4
  Parent ([^18F]FPCA‐F9) fraction, urine: 95% ± 1%
[2]; urine samples, SE‐HPLC
  Radioactivity in peak at ~12 minutes (larger species): 5%

— article PMC5601235, “In vivo characterisation of a therapeutically relevant self‐assembling ^18F‐labelled β‐sheet forming peptide and its hydrogel using positron emission tomography” (Journal of Labelled Compounds & Radiopharmaceuticals, 2017)
